Measured values reported in PubChem BioAssay AID2305 (GlaxoSmithKline (GSK), 2010).

system: P. falciparum 3D7 growth, pLDH absorbance; assay: blood-stage malaria parasite growth potency – strain 3D7, dose response (AID 2305)

| SMILES | IC50 [nM] |
| --- | --- |
| COc1cc(OC)cc(-c2nn(-c3ccc([N+](=O)[O-])cc3C#N)c(=S)n2CC2CCCO2)c1 (stereo not drawn) | 850 |
| O=C(NCc1cccc(Br)c1)c1ccc(CNC2CCN(Cc3ccccc3)CC2)cc1 | 870 |
| O=C(Nc1ccccc1)N(Cc1cccc(-c2cccc(CNCCc3ccccc3)c2)c1)C1CCN(Cc2ccccc2)CC1 | 310 |
| COc1ccc(-c2cccc(NC(=O)c3cccc(C#N)c3)c2)cc1CN1CCCC1 | 750 |
| O=C(Nc1ccc(S(=O)(=O)N2CCCC2)cc1)c1cc(-c2cccnc2)nc2ccc(Cl)cc12 | 300 |
| CC(=O)Nc1ccc(CN2CCCN(c3cc(NC(=O)c4cccc(C)c4)ccn3)CC2)cc1 | 860 |
| CN1CCN(CCCCCCNc2c3ccccc3nc3ccccc23)CC1 | 720 |
| CCOc1ccccc1CCNCC1CCN(CC2CCCCC2)CC1 | 780 |
| O=C(Nc1ccc(C(=O)Oc2cccc3ccccc23)cc1)N[C@@H](Cc1ccc(O)cc1)C(=O)NC1CCN(Cc2ccc(O)cc2)C1 (stereo partly drawn) | 910 |
| Cc1cccc2[nH]c(-c3cccc(-c4cccc(CN5CCN(c6ccncc6)CC5)c4)c3)nc12 | 200 |
| CCCCOc1cc2[nH]cc(C(=O)OCC)c(=O)c2cc1OCCCC | 200 |
| NC(=O)c1cccc(Nc2nccc(Nc3ccc(Oc4cccc(Cl)c4)c(Cl)c3)n2)c1 | 1280 |
| CCc1ccc(NC(=O)c2ccc(CN3CCCN(Cc4ccc(C)s4)CC3)cc2)cc1 | 1150 |
| C[C@@]12C[C@@H](Nc3nc(NCCc4ccc(O)cc4)nc(N4CCNCC4)n3)C[C@@H](C1)c1cccc(Cl)c1O2 | 1320 |
| COc1ccc(-c2cc(-c3ccc(S(C)(=O)=O)cc3)cnc2N)cn1 | 190 |
| Cc1ccc(C(=O)Cn2nc(-c3ccc(C)c(S(=O)(=O)N4CCCC4)c3)ccc2=O)cc1 | 510 |
| Nc1nc(N)c2cc(N(Cc3ccccc3)Cc3ccccc3)ccc2n1 | 610 |
| CN1CCC(c2c[nH]c3ccc(NC(=O)Nc4ccc(-c5ccncc5)c(Cl)c4Cl)cc23)CC1 | 700 |
| COc1ccc(Nc2nc(NC3CCN(Cc4ccccc4)CC3)cc(-c3ccncc3)n2)cc1 | 990 |
| COc1ccc2ncc(F)c(CCN3CCC(CNC(=O)C(=O)c4c[nH]c5ccccc45)CC3)c2n1 | 390 |
| Clc1ccc2c(N3CCN(CCN4CCN(c5ccnc6cc(Cl)ccc56)CC4)CC3)ccnc2c1 | 130 |
| Cc1[nH]c(C)c(-c2ccc(Oc3ccc(Cl)cc3)cc2)c(=O)c1C | 390 |
| CCN(CCO)Cc1ccc(-c2ccc(NS(=O)(=O)c3cccc4cccnc34)cc2)cc1 | 990 |
| CCC(C)(C)c1ccc(OCCCC(=O)Nc2ccc(Cl)c([N+](=O)[O-])c2)c(C(C)(C)CC)c1 | 970 |
| CC(C)C[C@H](NC(=O)[C@H](Cc1ccccc1)NC(=O)CCN1C(=O)COc2ccc(C(=O)O)cc21)C(=O)NC(CC1CCCCC1)C(O)CC(=O)NCCCn1ccnc1 (stereo partly drawn) | 970 |

| SMILES | IC50 [nM] |
| --- | --- |
| CCCCCCN1CCC(CNCc2cccc(Cl)c2)CC1 | 1220 |
| COc1ccccc1-c1ccc(CNC(=O)C(CN2CCN(C)CC2)c2ccccc2)cc1 (stereo not drawn) | 1260 |
| Cc1ccccc1C1CCN(C2CCC(NC(=O)/C=C/c3ccccc3C(F)(F)F)CC2)CC1 (stereo not drawn) | 1410 |
| CNC(=O)/C=C/c1cc(NC(=O)Nc2ccnc3c(Br)cccc23)ccc1OC | 860 |
| Cn1cnc(CCNC(=O)c2cccc(-c3ccc(-c4nc5ccc(F)cc5[nH]4)cc3)c2)c1 | 940 |
| CC(C)CCN1CCC(Oc2ccc(NC(=O)c3ccsc3)cc2Cl)CC1 | 1040 |
| C[C@@H]1CCC[C@H](C)N1C[C@@H](O)CNS(=O)(=O)c1cccc(C(F)(F)F)c1 | 690 |
| CCOC(=O)C(NC(=O)Cc1ccccc1)C(C)C (stereo not drawn) | 290 |
| CC(C)(C)c1ccc(NC(=O)c2ccc(CN3CCCN(Cc4ccc(F)cc4)CC3)cc2)cc1 | 1110 |
| COc1cccc(OCC2CCCN(CCCCNC(=O)c3ccc(NC(=O)c4ccc(Cl)cc4)cc3)C2)c1 (stereo not drawn) | 750 |
| CC(C)(C)c1cc(C(=O)Nc2cccnc2)cc(C(=O)Nc2cccnc2)c1 | 760 |
| CCCCCc1cc(OC(=O)CCCN(CC)CC)c2c(c1)OC(C)(C)C=C2C1=CCN(Cc2ccc3ccccc3c2)CC1 | 160 |
| Cc1cc(-c2ccc(Cl)cc2)c2c(N)c(C(=O)Nc3ccc(F)cc3)sc2n1 | 820 |
| Cc1cccc2[nH]c(-c3cccc(-c4cccc(NC(=O)NCc5cccc(F)c5)c4)c3)nc12 | 450 |
| N#Cc1ccc2c(c1)CCN(CCC1CCC(NC(=O)/C=C/c3ccc(Cl)c(Cl)c3)CC1)CC2 (stereo not drawn) | 420 |
| Fc1ccc2nc(-c3cccc(-c4cccc(CN5CCN(c6ccncc6)CC5)c4)c3)[nH]c2c1 | 150 |
| Cc1cc(NC(=O)c2cccs2)ccc1OC1CCN(Cc2ccccc2)C1 (stereo not drawn) | 890 |
| CC(=O)Nc1ccc(C(=O)Nc2cccc(-c3ccc(-c4nc5ccc(C(F)(F)F)cc5[nH]4)cc3)c2)cn1 | 230 |
| COc1ccc(-c2cccc(NC(=O)c3ccc(Cl)cc3)c2)cc1CN1CCC(O)CC1 | 790 |
| Cn1cccc1C(=O)C(=O)Nc1cccc(-c2ccc(-c3nc4ccc(C(F)(F)F)cc4[nH]3)cc2)c1 | 790 |
| Fc1ccc(NC(=S)NCCc2ccccc2)cc1 | 780 |
| COc1ccc(NC(=O)C2c3ccccc3C(=O)N(C3CCCC3)C2c2cccs2)c(OC)c1 (stereo not drawn) | 1480 |
| NC(N)=Nc1ccc(NC(=O)Nc2ccc(N=C(N)N)cc2)cc1 | 390 |
| COc1ccc(CN(C)Cc2cc(C(C)C)c(C)cc2O)cc1F | 650 |
| O=C(Cc1cccc(Cl)c1)Nc1ccc(N2CCC(NCc3ccc4ncccc4c3)CC2)cc1 | 1230 |

| SMILES | IC50 [nM] |
| --- | --- |
| O=C(/C=C/c1ccc(I)cc1)NCCCCCN1CCC(c2c[nH]c3ccccc23)CC1 | 840 |
| O=C(Nc1ccccc1)N1CCOC(CCN2CCC(F)(F)CC2)(c2ccc(Cl)c(Cl)c2)C1 (stereo not drawn) | 190 |
| O=C(Nc1ccc(-c2nc3ccccc3[nH]2)cc1)C1CCCN(CC2CC2)C1 (stereo not drawn) | 950 |
| NC1CCN(Cc2cccc(-c3cccc(-c4nc5ccccc5[nH]4)c3)c2)C1 (stereo not drawn) | 790 |
| c1ccc(OCCOc2ccc(Nc3ccnc4cc5ccccc5cc34)cc2)cc1 | 250 |
| Cc1cc(-c2cc(Cl)ccc2Cl)no1 | 170 |
| CC(C)C1C(O)=C(c2ccc3ccccc3c2)C(=O)N1Cc1ccsc1 (stereo not drawn) | 1070 |
| Cc1[nH]c2ccccc2c1CC1CCN(CC2CCN(C(=O)/C=C/c3ccc(Cl)c(Cl)c3)CC2)CC1 | 950 |
| Cc1cccc2[nH]c(-c3cccc(-c4cccc(CNCCCN5CCCC5=O)c4)c3)nc12 | 740 |
| COc1cccc2c(NN=Cc3cccc(Cl)c3)ccnc12 | 840 |
| Cc1cnc(C(=O)Nc2cccc(-c3ccc(-c4nc5ccc(C(F)(F)F)cc5[nH]4)s3)c2)cn1 | 700 |
| CCCCC(NCC)c1ccc(OCCOc2ccc(C(CCCC)NCC)cc2)cc1 (stereo not drawn) | 930 |
| Cc1cn(CC(=O)Nc2cccc(-c3cccc(-c4nc5c(C)cccc5[nH]4)c3)c2)c(=O)[nH]c1=O | 580 |
| CN(CCC1CCN(C(=O)/C=C/c2ccc(Cl)c(Cl)c2)CC1)C1CCC(c2c[nH]c3ccccc23)CC1 (stereo not drawn) | 770 |
| CCN(CC)CCOC(=O)c1ccc(NC(=O)c2cn(-c3ccccc3)nc2-c2cccs2)cc1 | 380 |
| Clc1ccc(OCc2ccccc2)c(-c2nc(-c3nc4ncc(Br)cc4[nH]3)cs2)c1 | 210 |
| O=C(Nc1c(F)cccc1F)c1cccc(-c2nn3ccccc3c2-c2ccnc(Nc3cccc(-c4cnco4)c3)n2)c1 | 360 |
| COc1cc2c(cc1S(=O)(=O)c1ccc(OCc3ccc(Cl)cc3)cc1)CCN(Cc1ccc(NC(C)=O)s1)CC2 | 920 |
| O=C(Nc1cccc(-c2ccc(CN3CCNCC3)cc2)c1)c1cccc(Cl)c1 | 1250 |
| NCCCNc1nccc(N2CCc3ncnc(Nc4ccc(OCc5cccc(F)c5)c(Cl)c4)c3C2)n1 | 830 |
| Cc1cccc(C=NNc2cc(C)nc3ccc(F)cc23)n1 | 1000 |
| O=C(NCCN1CCCCC1)N1CCCN(c2ncnc3cc(-c4ccccc4)sc23)CC1 | 230 |
| CN1CCc2cc(NS(=O)(=O)c3ccc(-c4ccc(Cl)s4)cc3)c(N3CCCCC3)cc2CC1 | 730 |
| CN(C)CCCN(C)c1cccc2c1nc(-c1cccnc1)n2CCNCc1ccccc1 | 1390 |
| O=C(Nc1ccccc1Cc1ccccc1)c1ccccc1C(F)(F)F | 780 |

| SMILES | IC50 [nM] |
| --- | --- |
| COc1ccc(-c2ccc(NC(=O)c3cccs3)cc2)cc1CN1CCCN(C)CC1 | 960 |
| O=C(NCC1CCC(CNCCCc2ccccc2)CC1)Nc1ccc(Cl)c(Cl)c1 (stereo not drawn) | 770 |
| O=C1Nc2cccc3c2C1(CCCCN1CCC(c2c(-c4ccc(F)cc4)[nH]c4ccccc24)CC1)CCC3 (stereo not drawn) | 1190 |
| CCC(C)Oc1ccc2nc(N)nc(N)c2c1Cl (stereo not drawn) | 180 |
| Oc1ccc2nc(N3CCNCC3)nc(NCCCc3ccccc3)c2c1 | 1370 |
| O=C(CC1SC(N2N=C(c3cccs3)CC2c2ccccc2)=NC1=O)Nc1ccc(Cl)cc1 (stereo not drawn) | 1680 |
| CCOC(C(=O)OCC1CCCN(C)C1)(c1ccccc1)c1ccccc1 (stereo not drawn) | 870 |
| Cc1cc(C(=O)Nc2ccc(-c3nc4ccccc4[nH]3)cc2)ccc1[N+](=O)[O-] | 670 |
| COc1ccc(NC(=O)/C=C/c2cc(Br)ccc2F)cc1OCCN(C(C)C)C(C)C | 760 |
| COc1ccc(Cc2c(N)nc3nc(N)nc(N)c3c2C)cc1 | 190 |
| Cc1cc(N2CCCC2=O)ccc1-c1ccc(C(=O)N2CCC(Oc3cccc(Cl)c3)CC2)cc1 | 430 |
| Cc1ccc(NS(=O)(=O)c2ccc(C(C)N3CCC(N4CCCCC4)CC3)cc2)cc1C (stereo not drawn) | 760 |
| NC(=O)c1ccsc1NC(=O)CNC(c1ccc(F)cc1)c1cccs1 (stereo not drawn) | 950 |
| N#Cc1cccc(NC(=O)C2=C(CCc3ccc4c(c3)OCO4)NC(=O)NC2c2cccc(C#N)c2)c1 (stereo not drawn) | 830 |
| CC(C)(C)C(Cn1ccnc1)NCc1cn[nH]c1-c1ccc(-c2ccccc2)cc1 (stereo not drawn) | 1060 |
| Cc1cc(N(C)C2CCN(CC3CCCCC3)C2)nc(Nc2ccc(Br)cc2)n1 (stereo not drawn) | 700 |
| COc1cc2nc(Cl)nc(Nc3ccncc3)c2cc1OC | 1210 |
| CCc1sc(N2CCN(C)CC2)nc1C(=O)Nc1ccc(F)cc1C(F)(F)F | 180 |
| COc1ccc2ncc(F)c(CCN3C[C@H](CNCc4ccccc4)[C@H](O)C3)c2n1 | 910 |
| O=C(NC=Nc1cc([N+](=O)[O-])c(-c2cccnc2)n1-c1ccc(O)cc1)c1ccccc1 | 300 |
| COc1cc(Nc2nccc(N3CCC(NC(=O)Nc4cccc(C(C)=O)c4)C3)n2)cc(OC)c1OC (stereo not drawn) | 970 |
| CCN(CC)CCN(Cc1ccc(-c2ccc(C(F)(F)F)cc2)cc1)C(=O)Cn1c(CCc2cccc(F)c2F)cc(=O)c(C)c1C | 620 |
| O=C(Nc1ccc(C(F)(F)F)cc1)NC1CCN(CCCCCNC(=O)[C@@H]2C[C@H]2c2ccc(Cl)c(Cl)c2)CC1 | 630 |
